Experimental data as given in patent publication US9187470B2, “Anti-mucus drugs and uses therefor” (Washington University, priority 2012, dated 2015).
pIC50: −log10 of the molar value. Like-named read-outs stand apart in the source and are kept apart here.

What was measured:
[1] = tested on: CLCA1; experiment: CLCA1 levels in IL-13-treated hTECs (qPCR); format: cell-based, human; settings: IL-13 50 ng/ml, up to 21 d air-liquid interface
[2] = tested on: MUC5AC; experiment: IL-13-induced MUC5AC production in primary-culture human tracheal epithelial cells (qPCR, cell-based ELISA); settings: for IL-13-induced MUC5AC production: FIG. 6h
[3] = tested on: MUC5AC; experiment: Doxycycline-induced MUC5AC mRNA and protein in NCI-H292-rtTA-hCLCA1 cells; format: cell-based, human; settings: doxycycline 7.5 μg/ml for 18 h
[4] = molecular target: T1, MAPK13 (Homo sapiens (Human), UniProt O15264); experiment: MAPK13/small molecule binding assay (bio-layer interferometry, Octet); settings: for t1/2: complex half-life determined using BLI; for slow-off binding kinetics: FIG. 6d,e
From the text: MAPK purification for biochemical assays and crystallization. Full-length human MAPK13 (1-365) and MAPK13 crystallization construct (1-352) were cloned into pET28a as N-terminal 6-His-tagged constructs. A constitutively active mutant MKK6-GST fusion construct (GST-MKK6 Glu) was a gift from Peiqing Sun (Scripps, La Jolla, Calif.). A pET28a construct of λ-phosphatase was a gift from Dima Klenchin (University of Wisconsin, Madison, Wis.). All constructs were confirmed by sequencing and transformed into Rosetta2 (DE3) E. coli (EMD Millipore, Billerica, Mass.) and expressed as soluble proteins that were purified using the specific affinity tags followed by gel filtration chromatography. […] All buffers used during purification (lysis, column, and storage) of MAPK13 required addition of 10% glycerol and 1-5 mM reducing agent (either β-mercaptoethanol or DTT) to prevent precipitation of the recombinant protein. The final purified MAPK13 for crystallization was stored in buffer containing 20 mM Hepes pH 7.5, 150 mM NaCl, 10% glycerol, and 1 mM DTT.
MAPK13/small molecule binding assay. Kinetics of MAPK13 binding to small molecules was assessed using bio-layer interferometry with an Octet (ForteBio, Menlo Park, Calif.). Super-streptavidin-coated biosensors from ForteBio were used to capture biotinylated MAPK13 onto the surface of the sensor. After reaching baseline, sensors were moved to association step containing 2500, 1250, 625, 312.5, or 156.3 nM inhibitor for 300 s and then dissociated for 300 s. Curves were corrected by a double-referencing technique using both biotin-coated pins dipped into the experimental wells and a buffer-only reference. The running buffer consisted of 10 mM Hepes pH 7.5, 150 mM NaCl, 0.05% Tween, and 5% DMSO. Half-lives were calculated from dissociation constants determined from global kinetic analysis.

[5] = molecular target: T1, MAPK13; experiment: MAPK inhibitor assay: immobilized metal affinity polarization (IMAP) assay with activated MAPK13; format: biochemical; settings: for MAPK13 inhibitory activity (in words): IMAP assay, FIG. 6f
Procedure: MAPK inhibitor assay. The MAPK13 blocking activity of test compounds was determined using an immobilized metal affinity polarization (IMAP) assay containing activated MAPK13, FITC-labeled substrate, and test compound. Full-length 6-His-tagged MAPK13 and constitutively active GST-MKK6 were prepared as described below. Activated MAPK13 was generated in 50 mM Hepes, 10 mM MgCl2 and 1 mM DTT, containing 1 μM MAPK13, 2 μM MKK6 and 50 μM ATP for 1 h at 25° C. MKK6 was removed by incubation with glutathione SEPHAROSE 4B beads (GE Healthcare Biosciences). […] IMAP assays were performed in 96-well non-treated half-area black plates or 384-well black plates (Corning Inc., Corning, N.Y.) in a final reaction volume of 20 μl using the linear phase of the rate kinetics. […] The reaction proceeded for 20 min at 25° C. in 10 mM Tris-HCl, 10 mM MgCl2, 0.1% BSA, 0.05% NaN3, 1 mM DT, pH 7.2 after which 60 μl of tri-valent metal nanoparticles containing IMAP binding reagent (Molecular Devices, Sunnyvale, Calif.) was added for 80 min at 25° C. The IMAP binding reagent was optimized at 1:600 (vol/vol) based on the number of acidic residues in the peptide substrate. Fluorescence polarization was measured with a Biotek Synergy 4 multimode plate reader (Biotek, Winooski, Vt.) with excitation at 485 nm and emission at 528 nm. The IC50 values for each compound were determined from the compound concentration versus fluorescence polarization (mP) plot using nonlinear curve fitting with GraphPad Prism software (Graphpad Software, La Jolla, Calif.).
MAPK purification for biochemical assays and crystallization. Full-length human MAPK13 (1-365) and MAPK13 crystallization construct (1-352) were cloned into pET28a as N-terminal 6-His-tagged constructs. […] A pET28a construct of λ-phosphatase was a gift from Dima Klenchin (University of Wisconsin, Madison, Wis.). All constructs were confirmed by sequencing and transformed into Rosetta2 (DE3) E. coli (EMD Millipore, Billerica, Mass.) and expressed as soluble proteins that were purified using the specific affinity tags followed by gel filtration chromatography. […] The final purified MAPK13 for crystallization was stored in buffer containing 20 mM Hepes pH 7.5, 150 mM NaCl, 10% glycerol, and 1 mM DTT.
In concert with this structural analysis, analogs for MAPK13 inhibitory activity were tested using an immobilized metal affinity polarization (IMAP) assay that detected fluorescence polarization as a function of remaining MAPK13 activity.

[6] = lower part of Table 4, IMAP-based biochemical assay, read-out: MAPK13 IC50
[7] = primary-culture human airway epithelial cells
[8] = upper part of Table 4, 16-point inhibitor concentration-response curves, unit inferred, read-out: IC50 (IC50 values for MAPK13 inhibition)

T1 sequence (O15264 whole entry, the tested form may be a part): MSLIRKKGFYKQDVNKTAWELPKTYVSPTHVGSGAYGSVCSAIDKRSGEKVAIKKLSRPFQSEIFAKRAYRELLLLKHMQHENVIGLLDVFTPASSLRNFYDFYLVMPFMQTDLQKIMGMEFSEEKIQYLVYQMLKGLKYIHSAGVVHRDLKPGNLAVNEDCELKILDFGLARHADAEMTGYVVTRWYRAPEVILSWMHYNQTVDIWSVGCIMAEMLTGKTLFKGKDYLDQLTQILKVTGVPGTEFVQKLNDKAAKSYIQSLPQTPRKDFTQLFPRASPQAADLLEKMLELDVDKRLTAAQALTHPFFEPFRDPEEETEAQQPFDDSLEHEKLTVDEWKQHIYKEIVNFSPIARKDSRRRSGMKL

In the case of Cc1ccc(-n2nc(C(C)(C)C)cc2NC(=O)Nc2ccc(OCCN3CCOCC3)c3ccccc23)cc1 [BIRB-796, BIRB-796 (Doramapimod)], the “corresponding CLCA1 levels / CLCA1 gene expression” value [1] was “without affecting”, the “IL-13-induced MUC5AC gene expression” value ([2]; hTECs, IL-13 50 ng/ml, up to 21 d air-liquid interface) was “markedly suppressed” and the “doxycyline-induced MUC5AC mRNA and protein production” value [3] was “inhibited”.

Cc1ccc(-n2nc(C(C)(C)C)cc2NC(=O)Nc2ccc3c(c2)CN(C(=O)C2CCOCC2)C3)cc1 [Analog 115, 1-[5-tert-butyl-2-(p-tolyl)pyrazol-3-yl]-3-[2-(tetrahydropyran-4-carbonyl)isoindolin-5-yl]urea] was tested, and the “Relative Dissociation kinetics” value ([4]; BLI) was “slow”, the t1/2 [4] was 3.4 min and the pIC50 [5, 6] was 5.06.

In the case of Cn1c(NC[C@@H](N)Cc2ccccc2)nc(-c2ccncc2)c(-c2ccc3ccccc3c2)c1=O [AMG-548, reference compound], the “MAPK13 inhibitory activity (in words)” value [5] was “weak inhibitory activity”.

Cn1nc(C(C)(C)C)cc1NC(=O)Nc1ccc(Oc2ccncc2)cc1 [Compound 61] was tested, and the “IL-13-induced MUC5AC production” value [2, 7] was “markedly suppressed”, the “increase in complex half-life” value ([4]; DFG-out compound 61 compared with DFG-in compound 117 (FIG. 6E)) was 40 fold and the slow-off binding kinetics [4] was “exhibited slow-off binding kinetics”. The t1/2 [4] was 1.85 min, the “MAPK13 inhibitory activity (in words)” value [5] was “most potent MAPK13 inhibition” and the pIC50 [5, 6] was 7.08. For the same compound, the pIC50 [5, 8] was 6.21.

Cc1cn(-c2cccc(C(=O)Nc3ccc(Oc4ccncc4)cc3)c2)cn1 [Analog 117, 3-(4-methylimidazol-1-yl)-N-[4-(4-pyridyloxy)phenyl]benzamide] was tested, and the slow-off binding kinetics [4] was “did not”, the t1/2 [4] was 0.0467 min and the “MAPK13 Inhibition Biochemical Potency” value ([5]; class symbols +++, ++, +, ~, legend not given) was “~”. For the same compound, the pIC50 [5, 6] was 4.99 and the pIC50 [5, 8] was 4.80.

For Cc1ccc(-n2nc(C(C)(C)C)cc2NC(=O)Nc2ccc(Oc3ccncc3)cc2)cc1 [Compound 62], the pIC50 ([2]; IL-13-induced, primary-culture human airway epithelial cells, read-out: IC50 for blockade of mucus production) was over 8.00, the “IL-13-induced MUC5AC production” value [2, 7] was “markedly suppressed” and the “MAPK13 inhibitory activity (in words)” value [5] was “most potent MAPK13 inhibition”. For the same compound, the pIC50 [5, 8] was 6.55.

Cc1ccc(-n2nc(C(C)(C)C)cc2NC(=O)Nc2ncc(CCN3CCOCC3)s2)cc1 [Analog 89, 1-[5-tert-butyl-2-(p-tolyl)pyrazol-3-yl]-3-[5-(2-morpholinoethyl)thiazol-2-yl]urea] gave a t1/2 [4] of 20 min and a pIC50 [5, 6] of 7.56.

O=C(Nc1ccc(Oc2ccncc2)cc1)c1ccnc(N2CCOCC2)c1 [Analog 124, 2-morpholino-N-[4-(4-pyridyloxy)phenyl]pyridine-4-carboxamide] was tested, and the t1/2 [4] was 0.02 min.
